Patent US6423869B1, “Polyol-amino acid compounds having anti-helicobacter pylori activity” (Takeda Chemical Industries, Inc., priority 1997, dated 2002)
Converted amounts (≈) assume the structure as drawn. Values belong to the molecule of their own block, whether it stands above or below them.

What was measured:
[1] = test system: gram-negative bacteria; conditions: cited from earlier work
[2] = test system: Helicobacter pylori (NCTC 11637); assay: In vitro antibacterial test, agar dilution method (MIC); assay type: cell-based; conditions: NCTC11637, 96 h, 7% horse blood-Brucella agar, 37° C., 4 days, read-out: MIC (minimal inhibitory concentration)
[3] = test system: Helicobacter pylori TN2GF4; assay: Gastric infection in mongolian gerbils, repetitive administration; assay type: in vivo
Description: Five-week-old MON/Jms/Gbs mongolian gerbils were inoculated intragastrically with 10^7.58 CFU of Helicobacter pylori TN2GF4. Four weeks after infection, a compound of the Example 47, suspended in 0.5% methyl cellulose, was administered orally at a dose of 30 mg/kg twice daily for 2 days. The animals were killed on the day after the final treatment. Stomachs were removed and homogenized with 3 ml of brucella broth, and the bacterial count in the homogenates was determined by serial dilution and titration on modified Skirrow's plates. The plates were incubated at 37° C. for 4 days in a microaerobic atmosphere prior to counting. No detectable Helicobacter pylori in the stomach on the day after final treatment was defined as clearance. Effect of repetitive administration of a compound of the Example 47 against gastric infection caused by H. pylori TN2GF4 in MON/JmsIGbs mongolian gerbils

[4] = test system: Helicobacter pylori TN2F4; assay: In vivo antibacterial test in infected mice; conditions: mice (Crj: ICR), 50 mg/kg orally twice daily for 2 days, cleared/total (%), hydrochloride
Description: In vivo Antibacterial Test
Mice (Crj: ICR, male, aged 5 weeks) were deprived of food for 20 hours and 6.17×10^7 CFU/mouse of Helicobacter pylori TN2F4 was inoculated into the stomach. Starting 11 days after infection, 50 mg/kg of the test compound suspended in 0.5% methyl cellulose/water was adminstered orally twice. daily, in the morning and evening, for 2 consecutive days. On the day following the last dose, the stomach was isolated from the infected mouse and homogenized and a 10-fold dilution series of the homogenate was inoculated on activated charcoal-modified Skirrow medium. Cultivation was carried out microaerobically at 37° C. for 4 days and the eradication rate was determined according to growth of the bacteria.
The number of bacteria was expressed in mean±standard error and the statistical analysis was made in comparison with the control group by the Dunnett method.

[5] = 30 mg/kg twice daily for 2 days

Compound: NCC1OC(OC2C(N)CC(NC(=O)C(O)C(O)C(O)C(N)CO)C(O)C2OC2OC(CO)C(O)C2O)C(N)C(O)C1O (stereo not shown)
activity against gram-negative bacteria [1]: active against gram-negative bacteria

MIC [2]: 0.025 µg/mL (≈ 0.0382 µM)
Compound: CC(C)C[C@H](NC(=O)[C@@H](NC(=O)[C@@H](N)C(C)C)C(C)C)C(=O)N[C@@H](CO)[C@@H](O)[C@@H](O)[C@H](O)C(=O)N[C@@H](CC(=O)O)c1ccccc1 [HC-70I, (S)-3-[(2S,3R,4R,5S)-2,3,4,6-tetrahydroxy-5-(L-valyl-L-valyl-L-leucyl)aminohexanoyl]amino-3-phenylpropionic acid]

Compound: C=CC[C@H](N)C(=O)N[C@@H](CO)[C@@H](O)[C@@H](O)[C@H](O)C(=O)N[C@@H](CC(=O)O)c1ccccc1 [Example 47, (S)-3-[(2S,3R,4R,5S)-5-((S)-2-amino-4-pentenoyl)amino-2,3,4,6-tetrahydroxyhexanoyl]amino-3-phenylpropionic acid]
clearance attained (gerbils cleared out of total) [3, 5]: 2 out of 4
number of infecting organism [3, 5]: decreased the number of infecting organism
Bacterial recovery Log CFU/gastric wall Mean ± SE ([3]; MON/Jms/Gbs mongolian gerbils, 30 mg/kg orally twice daily for 2 days): 2.23 ± 0.44 Log CFU/gastric wall

Compound: CC(C)C[C@H](NC(=O)[C@@H](N)C(C)C)C(=O)N[C@@H](CO)[C@@H](O)[C@@H](O)[C@H](O)C(=O)N[C@@H](CC(=O)O)c1ccccc1.Cl [HC-70II.HCl, (S)-3-[(2S,3R,4R,5S)-2,3,4,6-tetrahydroxy-5-(L-valyl-L-leucyl)aminohexanoyl]amino-3-phenylpropionate hydrochloride]
Clearance rate (%) [4]: 100%

MIC [2]: 0.025 µg/mL (≈ 0.0451 µM)
Compound: CC(C)C[C@H](NC(=O)[C@@H](N)C(C)C)C(=O)N[C@@H](CO)[C@@H](O)[C@@H](O)[C@H](O)C(=O)N[C@@H](CC(=O)O)c1ccccc1 [HC-70II, (S)-3-[(2S,3R,4R,5S)-2,3,4,6-tetrahydroxy-5-(L-valyl-L-leucyl)aminohexanoyl]amino-3-phenylpropionic acid]
